Data as given in patent US20080009418A1, “Selective Inhibitors” (Alchemia LTD., priority 2004, published 2008).

What was measured:
Human melanocortin (MC5) = target: T1, Human melanocortin (MC5) (Homo sapiens, UniProt P33032); experiment: Radioligand binding, human melanocortin MC5 membranes, FlashPlate, [125I]-NDP-αMSH; conditions: compound at 10 μM, [125I]-NDP-αMSH
T1 construct: purchased Perkin Elmer Biosignal
Procedure: (§1) Cloned receptor membrane preparations from Perkin Elmer Biosignal™ were used in radioligand binding assays.
(§2) A1 Human δ-opioid (DOP), A2 Human κ-Opioid (KOP), A3 Human Melanocortin (MC3), A4 Human Melanocortin (MC4), A5 Human melanocortin (MC5), A6 Human melanin-concentrating hormone (MCH1), A7 Human μ-opioid (MOP), A8 Human neurokinin (NK1), A9 Human neuropeptide Y (NPY-Y1), A10 Human opioid (ORL1) A11 Mouse urotensin (mUR2)
(§3) Screening experiments were performed in either a 50 μl filtration or 25 μl FlashPlate assay format using the following protocol:
(§4) 19.5 μl buffer, 0.5 μl of compound diluted in DMSO, 5 μl of radioligand diluted in binding buffer.
(§5) The day prior to performing the experiment 50 μl DMSO was added to each well of the compound plates to yield compounds at a final concentration of 10 mM. Daughter plates were then created by diluting the compounds further in DMSO to a concentration of 0.5 mM. The mother plates were frozen immediately.
(§6) Immobilize membranes into FlashPlate microplates using PerkinElmer BioSignal's proprietary coating procedure. Dilute radioligand to 5× the final concentration in binding buffer. Add 19.5 μl buffer to each well of the FlashPlate. Add 0.5 μl of DMSO (total value, 5 wells), reference ligand (non-specific value, 3 wells) or compound to the corresponding wells in the FlashPlate microplate. Initiate the reaction by adding 5 μl of radioligand to each well. Apply TopSeal-A onto FlashPlate microplates. Incubate at room temperature for 1 hour in the dark. Count for 30 seconds per well on TopCount Microplate Scintillation and Luminescence Counter (PerkinElmer) using a count delay of 60 seconds.
(§7) Percentage inhibition was calculated using the following formula: [formula]

Human Melanocortin (MC3) = target: T2, Human Melanocortin (MC3) (Homo sapiens, UniProt P41968); experiment: Radioligand binding, human melanocortin MC3 membranes, FlashPlate, [125I]-NDP-αMSH; conditions: compound at 10 μM, [125I]-NDP-αMSH
T2 construct: purchased Perkin Elmer Biosignal
Procedure: as §1, §2, §3, §4, §5, §6, §7

Human δ-opioid (DOP) = target: T3, Human δ-opioid (DOP) (Homo sapiens, UniProt P41143); experiment: Radioligand binding, human δ-opioid (DOP) membranes, FlashPlate, [3H]-Bremazocine; conditions: compound at 10 μM, [3H]-Bremazocine
T3 construct: purchased Perkin Elmer Biosignal
Procedure: as §1, §2, §3, §4, §5, §6, §7

Human Melanocortin (MC4) = target: T4, Human Melanocortin (MC4) (Homo sapiens, UniProt P32245); experiment: Radioligand binding, human melanocortin MC4 membranes, FlashPlate, [125I]-NDP-αMSH; conditions: compound at 10 μM, [125I]-NDP-αMSH
T4 construct: purchased Perkin Elmer Biosignal
Procedure: as §1, §2, §3, §4, §5, §6, §7

[1] = target: T5, Human neuropeptide Y (NPY-Y1) (Homo sapiens, UniProt P25929); experiment: Radioligand binding, human neuropeptide Y NPY-Y1 membranes, FlashPlate, [125I]-PYY; conditions: compound at 10 μM, [125I]-PYY
T5 construct: purchased Perkin Elmer Biosignal
T5 sequence (P25929 1-384): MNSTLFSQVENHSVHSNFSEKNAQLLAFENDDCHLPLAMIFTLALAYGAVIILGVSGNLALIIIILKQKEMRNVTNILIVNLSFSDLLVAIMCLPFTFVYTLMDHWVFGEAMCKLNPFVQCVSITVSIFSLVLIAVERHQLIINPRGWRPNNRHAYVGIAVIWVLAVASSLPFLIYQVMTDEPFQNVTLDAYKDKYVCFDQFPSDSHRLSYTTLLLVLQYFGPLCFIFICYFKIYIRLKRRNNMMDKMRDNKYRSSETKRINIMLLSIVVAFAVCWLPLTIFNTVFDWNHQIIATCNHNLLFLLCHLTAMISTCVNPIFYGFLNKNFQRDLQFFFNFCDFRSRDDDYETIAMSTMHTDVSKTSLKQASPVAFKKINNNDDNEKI
Procedure: as §1, §2, §3, §4, §5, §6, §7

Human opioid (ORL1) = target: T6, Human opioid (ORL1) (Homo sapiens, UniProt P41146); experiment: Radioligand binding, human opioid ORL1 membranes, FlashPlate, [125I]-Nociceptin; conditions: compound at 10 μM, [125I]-Nociceptin
T6 construct: purchased Perkin Elmer Biosignal
Procedure: as §1, §2, §3, §4, §5, §6, §7

Human neurokinin (NK1) = target: T7, Human neurokinin (NK1) (Homo sapiens, UniProt P25103); experiment: Radioligand binding, human neurokinin NK1 membranes, filtration, [125I]-Substance P; conditions: compound at 10 μM, [125I]-Substance P
T7 construct: purchased Perkin Elmer Biosignal
Procedure: as §1, §2, §3
(§8) 44 μl membranes diluted in buffer, 1 μl of compound diluted in DMSO, 5 μl of radioligand diluted in binding buffer.
as §5
(§9) Thaw membranes on ice then dilute membranes in binding buffer at a concentration of 1 Unit per well. Dilute radio-ligand to 10 times the final concentration in binding buffer. Add 44 μl of diluted membranes to each well of the deep-well plate. Add 1 μl of DMSO (total value, 5 wells), reference ligand (non-specific value, 3 wells) or compound to the corresponding wells in the deep-well plate. Initiate the reaction by adding 5 μl of radioligand to each well and vortex gently. Incubate at room temperature for 1 hour. During incubation, pre-incubate the Multiscreen Harvest plates in 0.3% PEI. Filter over pre-soaked Multiscreen Harvest plates using a Tomtec Harvester. Wash 9 times with 500 μl of cold 50 mM Tris-HCl pH 7.4 at 4° C. and air-dry for 30 minutes at room temperature under a fume hood. Apply a bottom seal to the Multiscreen Harvest plates. Add 25 μl of MicroScint-0 to each well. Apply TopSeal-A to the plate. Count for 30 seconds per well on TopCount Microplate Scintillation and Luminescence Counter (PerkinElmer) using a count delay of 60 seconds.
as §7

Human μ-opioid (MOP) = target: T8, Human μ-opioid (MOP) (Homo sapiens, UniProt P35372); experiment: Radioligand binding, human μ-opioid (MOP) membranes, FlashPlate, [3H]-Naloxone; conditions: compound at 10 μM, [3H]-Naloxone
T8 construct: purchased Perkin Elmer Biosignal
Procedure: as §1, §2, §3, §4, §5, §6, §7

Mouse urotensin (mUR2) = target: T9, Mouse urotensin (mUR2) (Mus musculus, UniProt Q8VIH9); experiment: Radioligand binding, mouse urotensin mUR2 membranes, FlashPlate, [125I]-Urotensin II; conditions: compound at 10 μM, [125I]-Urotensin II
T9 construct: purchased Perkin Elmer Biosignal
T9 sequence (Q8VIH9 1-385): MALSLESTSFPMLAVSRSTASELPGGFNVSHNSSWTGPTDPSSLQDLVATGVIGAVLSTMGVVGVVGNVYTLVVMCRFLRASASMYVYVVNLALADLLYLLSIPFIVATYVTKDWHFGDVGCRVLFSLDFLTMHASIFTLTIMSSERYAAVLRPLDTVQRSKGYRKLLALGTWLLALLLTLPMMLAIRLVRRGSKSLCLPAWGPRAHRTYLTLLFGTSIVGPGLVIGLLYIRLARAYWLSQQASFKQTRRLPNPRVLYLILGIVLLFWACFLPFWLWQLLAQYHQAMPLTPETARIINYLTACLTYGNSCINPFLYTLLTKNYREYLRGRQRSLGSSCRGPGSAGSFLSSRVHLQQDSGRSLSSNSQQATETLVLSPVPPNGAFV
Procedure: as §1, §2, §3, §4, §5, §6, §7

Human κ-Opioid (KOP) = target: T10, Human κ-Opioid (KOP) (Homo sapiens, UniProt P41145); experiment: Radioligand binding, human κ-opioid (KOP) membranes, filtration, [3H]-Diprenorphine; conditions: compound at 10 μM, [3H]-Diprenorphine
T10 construct: purchased Perkin Elmer Biosignal
Procedure: as §1, §2, §3, §8, §5, §9, §7

[2] = target: T11, Human melanin-concentrating hormone (MCH1) (Homo sapiens, UniProt Q99705); experiment: Radioligand binding, human melanin-concentrating hormone MCH1 membranes, FlashPlate, [125I]-S36057; conditions: compound at 10 μM
T11 construct: purchased Perkin Elmer Biosignal
Procedure: as §1, §2, §3, §4, §5, §6, §7

T7 sequence (P25103 whole entry): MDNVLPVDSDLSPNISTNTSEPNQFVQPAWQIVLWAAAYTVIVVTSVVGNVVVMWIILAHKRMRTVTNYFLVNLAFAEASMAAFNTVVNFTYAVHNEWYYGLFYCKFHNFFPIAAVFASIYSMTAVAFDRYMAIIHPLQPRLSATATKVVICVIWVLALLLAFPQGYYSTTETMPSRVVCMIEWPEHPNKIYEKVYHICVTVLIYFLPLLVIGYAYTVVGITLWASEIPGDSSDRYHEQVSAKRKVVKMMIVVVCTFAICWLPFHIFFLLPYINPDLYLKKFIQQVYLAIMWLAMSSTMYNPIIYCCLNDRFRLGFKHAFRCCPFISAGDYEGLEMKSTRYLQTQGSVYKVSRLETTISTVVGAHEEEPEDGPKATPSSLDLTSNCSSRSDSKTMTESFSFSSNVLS
T8 sequence (P35372 whole entry): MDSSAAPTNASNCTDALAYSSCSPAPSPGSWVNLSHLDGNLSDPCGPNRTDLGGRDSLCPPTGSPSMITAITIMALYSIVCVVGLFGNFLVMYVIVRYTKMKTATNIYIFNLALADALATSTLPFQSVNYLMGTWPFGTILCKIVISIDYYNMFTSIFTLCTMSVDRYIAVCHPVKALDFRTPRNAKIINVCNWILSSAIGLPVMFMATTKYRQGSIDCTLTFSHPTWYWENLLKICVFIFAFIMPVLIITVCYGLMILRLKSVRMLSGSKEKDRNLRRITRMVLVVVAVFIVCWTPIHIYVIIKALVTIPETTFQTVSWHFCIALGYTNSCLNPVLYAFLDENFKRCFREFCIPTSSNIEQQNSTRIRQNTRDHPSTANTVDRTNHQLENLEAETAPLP
T1 sequence (P33032 whole entry): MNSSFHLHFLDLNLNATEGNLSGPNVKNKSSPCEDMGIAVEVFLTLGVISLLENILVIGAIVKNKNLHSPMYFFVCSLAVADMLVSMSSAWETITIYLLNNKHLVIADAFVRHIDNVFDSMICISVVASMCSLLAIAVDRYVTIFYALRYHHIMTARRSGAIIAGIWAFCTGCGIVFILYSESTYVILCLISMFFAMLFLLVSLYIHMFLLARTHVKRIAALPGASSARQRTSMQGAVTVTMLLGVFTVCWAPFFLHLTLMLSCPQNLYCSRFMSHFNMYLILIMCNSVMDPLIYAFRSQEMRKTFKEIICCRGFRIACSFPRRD
T3 sequence (P41143 whole entry): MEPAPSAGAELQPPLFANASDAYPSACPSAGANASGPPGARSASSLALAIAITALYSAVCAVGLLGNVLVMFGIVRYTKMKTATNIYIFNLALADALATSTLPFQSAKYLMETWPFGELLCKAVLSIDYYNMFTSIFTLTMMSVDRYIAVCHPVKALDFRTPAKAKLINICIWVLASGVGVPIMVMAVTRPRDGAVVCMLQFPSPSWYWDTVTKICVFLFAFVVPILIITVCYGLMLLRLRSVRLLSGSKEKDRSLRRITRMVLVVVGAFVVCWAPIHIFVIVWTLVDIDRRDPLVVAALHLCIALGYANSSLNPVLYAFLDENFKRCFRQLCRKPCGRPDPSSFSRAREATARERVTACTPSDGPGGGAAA
T2 sequence (P41968 whole entry): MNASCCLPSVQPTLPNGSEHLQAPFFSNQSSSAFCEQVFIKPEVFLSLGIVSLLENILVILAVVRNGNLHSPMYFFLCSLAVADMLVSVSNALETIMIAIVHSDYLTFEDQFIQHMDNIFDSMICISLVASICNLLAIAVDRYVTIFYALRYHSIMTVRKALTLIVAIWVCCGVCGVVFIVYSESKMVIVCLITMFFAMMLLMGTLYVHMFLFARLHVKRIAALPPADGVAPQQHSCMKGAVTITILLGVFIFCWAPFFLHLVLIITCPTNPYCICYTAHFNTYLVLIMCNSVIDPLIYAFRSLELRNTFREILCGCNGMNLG
T4 sequence (P32245 whole entry): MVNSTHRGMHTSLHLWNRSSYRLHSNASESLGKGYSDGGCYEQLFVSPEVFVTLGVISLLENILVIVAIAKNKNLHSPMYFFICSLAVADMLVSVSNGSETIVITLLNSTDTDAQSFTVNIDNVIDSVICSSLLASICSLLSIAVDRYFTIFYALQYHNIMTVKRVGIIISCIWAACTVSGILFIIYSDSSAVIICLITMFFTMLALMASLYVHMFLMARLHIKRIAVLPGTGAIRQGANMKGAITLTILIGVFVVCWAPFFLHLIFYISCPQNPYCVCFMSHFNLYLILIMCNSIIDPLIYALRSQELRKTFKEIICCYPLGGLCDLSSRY
T6 sequence (P41146 whole entry): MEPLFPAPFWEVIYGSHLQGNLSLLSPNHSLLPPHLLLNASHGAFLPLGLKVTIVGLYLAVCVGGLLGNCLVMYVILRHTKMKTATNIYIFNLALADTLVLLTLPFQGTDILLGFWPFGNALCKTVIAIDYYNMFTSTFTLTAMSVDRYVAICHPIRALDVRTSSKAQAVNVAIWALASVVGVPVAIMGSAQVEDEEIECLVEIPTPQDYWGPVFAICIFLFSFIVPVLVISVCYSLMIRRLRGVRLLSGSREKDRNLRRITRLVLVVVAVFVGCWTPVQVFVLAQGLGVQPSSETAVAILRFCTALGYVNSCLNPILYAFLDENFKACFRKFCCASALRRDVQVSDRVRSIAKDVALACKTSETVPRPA
T10 sequence (P41145 whole entry): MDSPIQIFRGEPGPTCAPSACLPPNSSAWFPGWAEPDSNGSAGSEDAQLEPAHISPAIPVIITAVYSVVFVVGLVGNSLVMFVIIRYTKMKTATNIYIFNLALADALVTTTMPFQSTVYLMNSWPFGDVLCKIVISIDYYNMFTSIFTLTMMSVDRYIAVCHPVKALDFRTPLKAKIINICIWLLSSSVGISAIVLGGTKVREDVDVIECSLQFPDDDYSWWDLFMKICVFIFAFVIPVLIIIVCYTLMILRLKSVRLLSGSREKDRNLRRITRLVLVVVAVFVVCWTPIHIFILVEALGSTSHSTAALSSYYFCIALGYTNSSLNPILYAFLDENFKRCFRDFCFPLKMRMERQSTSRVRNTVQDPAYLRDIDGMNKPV
T11 sequence (Q99705 whole entry): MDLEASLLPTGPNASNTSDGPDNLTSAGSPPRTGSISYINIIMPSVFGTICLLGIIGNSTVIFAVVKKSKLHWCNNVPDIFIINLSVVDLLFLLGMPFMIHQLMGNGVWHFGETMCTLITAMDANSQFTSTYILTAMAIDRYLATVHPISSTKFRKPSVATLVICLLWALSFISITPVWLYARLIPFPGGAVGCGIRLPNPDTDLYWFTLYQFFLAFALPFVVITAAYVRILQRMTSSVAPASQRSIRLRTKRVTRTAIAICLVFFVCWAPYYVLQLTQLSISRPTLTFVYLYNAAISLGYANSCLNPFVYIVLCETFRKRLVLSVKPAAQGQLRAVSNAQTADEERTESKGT

Q: For `COCC1OC(OCc2ccc3ccccc3c2)C(NC(=O)CCNC(=N)N)C(OCc2ccc(Cl)cc2)C1O` (stereo not shown) [compound 238], which “A5: inhibition of radioligand binding” value (Human melanocortin (MC5); FlashPlate) is on record?
A: The value was “+ (“+” indicates greater than 50% inhibition at 10 μM)”.

Q: What about the “A3: inhibition of radioligand binding” value (Human Melanocortin (MC3); FlashPlate) of the same molecule?
A: The value was “+ (“+” indicates greater than 50% inhibition at 10 μM)”.

Q: What about the “A1: inhibition of radioligand binding” value (Human δ-opioid (DOP); FlashPlate) of the same molecule?
A: The value was “+ (“+” indicates greater than 50% inhibition at 10 μM)”.

Q: What about the “A4: inhibition of radioligand binding” value (Human Melanocortin (MC4); FlashPlate) of the same molecule?
A: The value was “+ (“+” indicates greater than 50% inhibition at 10 μM)”.

Q: And the “A9: inhibition of radioligand binding” value ([1]; FlashPlate)?
A: The value was “− (“−” indicates less than 50% inhibition at 10 μM)”.

Q: What about the “A10: inhibition of radioligand binding” value (Human opioid (ORL1); FlashPlate) of the same molecule?
A: Its value is “+ (“+” indicates greater than 50% inhibition at 10 μM)”.

Q: What about the “A8: inhibition of radioligand binding” value (Human neurokinin (NK1); filtration) of the same molecule?
A: Its value is “+ (“+” indicates greater than 50% inhibition at 10 μM)”.

Q: And the “A7: inhibition of radioligand binding” value (Human μ-opioid (MOP); FlashPlate)?
A: Its value is “− (“−” indicates less than 50% inhibition at 10 μM)”.

Q: And the “A11: inhibition of radioligand binding” value (Mouse urotensin (mUR2); FlashPlate)?
A: Its value is “− (“−” indicates less than 50% inhibition at 10 μM)”.

Q: What about the “A2: inhibition of radioligand binding” value (Human κ-Opioid (KOP); filtration) of the same molecule?
A: Its value is “− (“−” indicates less than 50% inhibition at 10 μM)”.

Q: What about the “A6: inhibition of radioligand binding” value ([2]; [125I]-S36057, FlashPlate) of the same molecule?
A: Its value is “+ (“+” indicates greater than 50% inhibition at 10 μM)”.

Q: With `CSC1OC(COCc2cccc(N)c2)C(O)C(OCc2ccc(Cl)cc2)C1NC(=O)Cc1ccccc1` (stereo not shown) [compound 333] as the molecule, how does the “A5: inhibition of radioligand binding, human melanocortin (MC5)” value (Human melanocortin (MC5)) read?
A: The value was “− (“−” indicates less than 50% inhibition at 10 μM)”.

Q: What about the “A3: inhibition of radioligand binding, human melanocortin (MC3)” value (Human Melanocortin (MC3)) of the same molecule?
A: The value was “− (“−” indicates less than 50% inhibition at 10 μM)”.

Q: And the “A1: inhibition of radioligand binding, human δ-opioid (DOP)” value (Human δ-opioid (DOP))?
A: The value was “− (“−” indicates less than 50% inhibition at 10 μM)”.

Q: What about the “A4: inhibition of radioligand binding, human melanocortin (MC4)” value (Human Melanocortin (MC4)) of the same molecule?
A: The value was “− (“−” indicates less than 50% inhibition at 10 μM)”.

Q: What about the “A9: inhibition of radioligand binding, human neuropeptide Y (NPY-Y1)” value [1] of the same molecule?
A: Its value is “− (“−” indicates less than 50% inhibition at 10 μM)”.

Q: And the “A10: inhibition of radioligand binding, human opioid (ORL1)” value (Human opioid (ORL1))?
A: The value was “− (“−” indicates less than 50% inhibition at 10 μM)”.

Q: And the “A8: inhibition of radioligand binding, human neurokinin (NK1)” value (Human neurokinin (NK1))?
A: Its value is “+ (“+” indicates greater than 50% inhibition at 10 μM)”.

Q: And the “A7: inhibition of radioligand binding, human μ-opioid (MOP)” value (Human μ-opioid (MOP))?
A: The value was “− (“−” indicates less than 50% inhibition at 10 μM)”.

Q: And the “A11: inhibition of radioligand binding, mouse urotensin (mUR2)” value (Mouse urotensin (mUR2))?
A: Its value is “− (“−” indicates less than 50% inhibition at 10 μM)”.

Q: What about the “A2: inhibition of radioligand binding, human κ-opioid (KOP)” value (Human κ-Opioid (KOP)) of the same molecule?
A: Its value is “− (“−” indicates less than 50% inhibition at 10 μM)”.

Q: And the “A6: inhibition of radioligand binding, human melanin-concentrating hormone (MCH1)” value ([2]; [125I]-S36057)?
A: Its value is “− (“−” indicates less than 50% inhibition at 10 μM)”.
